Data published in PubChem BioAssay (NCI).
Where “and” joins values, the source holds several entries; their conditions need not be identical. Equal entries are not always repeated.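 Growth conditions: 96-well plates. Treatment: test compound, 48 hours, 5 concentrations. Analysis: linear interpolation between bracketing concentrations; unreached endpoints set to highest concentration. GI50 = concentration required for 50% inhibition of growth. TGI denotes the concentration required for complete inhibition of growth.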

Assays:
Assay in all cases: inhibition of tumour cell growth, NCI panel, 48 h
MCF7 breast = test system: MCF7 breast
SK-OV-3 ovarian = test system: SK-OV-3 ovarian
UO-31 renal = test system: UO-31 renal
786-0 renal = test system: 786-0 renal
SF-295 CNS = test system: SF-295 CNS
OVCAR-3 ovarian = test system: OVCAR-3 ovarian
HCC-2998 colon = test system: HCC-2998 colon
HS 578T breast = test system: HS 578T breast

Structure (SMILES)	GI50 (MCF7 breast) [µM]	TGI (MCF7 breast) [µM]	GI50 (SK-OV-3 ovarian) [µM]	TGI (SK-OV-3 ovarian) [µM]	GI50 (UO-31 renal) [µM]	TGI (UO-31 renal)	GI50 (786-0 renal) [µM]	TGI (786-0 renal)	GI50 (SF-295 CNS) [µM]	TGI (SF-295 CNS)	GI50 (OVCAR-3 ovarian) [µM]	TGI (OVCAR-3 ovarian)	GI50 (HCC-2998 colon) [µM]	TGI (HCC-2998 colon)	GI50 (HS 578T breast) [µM]	TGI (HS 578T breast)
c1ccc(CNCCN(CCNCc2ccccn2)Cc2ccc3ccccc3c2)nc1	2.86	10.5	1.94	5.11	0.668	2.3 µM	2.34	8.15 µM	1.42	3.55 µM	1.83	3.74 µM	1.83	3.39 µM	–	–
O=[N+]([O-])c1cc([N+](=O)[O-])c(Nn2c3ccccc3c3ccccc32)c([N+](=O)[O-])c1	0.292	5.86	–	–	0.245	6.63 µM and 0.916 µM	0.324	13.1 µM and 15.9 µM	–	0.79 µM	0.352	> 33.5 µM	0.44	12.5 µM and 2.63 µM	0.366	–
NS(=O)(=O)c1cc(C(=O)O)c(O)c2ccccc12	–	> 100	–	> 100	–	> 100 µM	–	> 100 µM	–	> 100 µM	–	> 100 µM	–	–	–	> 100 µM
O=C(c1ccc(Cl)cc1)C(O)c1ccc(Cl)cc1 (stereo unspecified)	–	> 100	–	–	–	> 100 µM	–	> 100 µM	–	> 100 µM	–	> 100 µM	–	> 100 µM	–	> 100 µM
O=C(O)C1[O][Sb][O]C(C(=O)O)C1O (stereo unspecified)	–	–	–	–	> 100	> 100 µM	> 100	> 100 µM	> 100	> 100 µM	> 100	> 100 µM	–	–	> 100	> 100 µM
CCCCCCCCCC[C@H](O)[C@H](O)CC[C@@H](O)[C@H]1CC[C@@H]([C@H]2CC[C@H](CCCCCCC[C@@H](O)CC3=C[C@H](C)OC3=O)O2)O1	19.2	77.6	–	–	16.6	4.18 µM and 32.3 µM	30.9	> 100 µM	0.416	31.9 µM	11.8	3.42 µM and 30.9 µM	–	47 µM	–	–
C/C=C1/CC(C)C(C)(O)C(=O)OCC2C(O)CN3CCC(OC1=O)C23 (stereo unspecified)	–	> 100	–	> 100	–	–	–	> 100 µM	–	> 100 µM	–	–	–	> 100 µM	–	> 100 µM
Nc1nc(/C=C\c2ccccc2)nc(N2CCN(c3ccccc3)CC2)n1	26.5	84.1	–	–	38.4	> 100 µM	16.2	34.8 µM	30	> 100 µM	28.2	57.5 µM	17.9	41.5 µM	61.8	> 100 µM
Oc1c(Cl)cc(Cl)c2ccc(Cn3cc(-c4ccc(C(F)(F)F)cc4)nn3)nc12	–	–	17.7	33	1.36	3.62 µM	1.82	4.59 µM	17.2	32.1 µM	1.33	2.74 µM	5.86	20.3 µM	2.38	8.44 µM
COc1ccc([C@@]23Oc4cc(OC)cc(OC)c4[C@]2(O)[C@H](O)[C@H](C(N)=O)[C@H]3c2ccccc2)cc1	–	0.112	–	–	–	0.0765 µM and 0.0995 µM	0.018	0.291 µM	–	0.0456 µM and < 0.01 µM	< 0.0129	0.101 µM and 0.284 µM	–	0.0697 µM and 0.0194 µM	< 0.0135	0.0914 µM and < 0.01 µM
COc1ccc(/C=C2/SC(Nc3nc(-c4nc(NC5=NC(=O)/C(=C\c6ccc(OC)cc6)S5)sc4C)c(C)s3)=NC2=O)cc1	1.59	> 30.7	–	–	4.27	> 32.2 µM	1.07	4.18 µM	0.255	4.97 µM	0.188	3.25 µM	0.82	3.66 µM	0.288	1.61 µM
CC1NC(=O)C2=C1C(=O)NC(=O)C2 (stereo unspecified)	> 100	> 100	–	–	> 100	> 100 µM	> 100	> 100 µM	> 100	> 100 µM	> 100	> 100 µM	> 100	> 100 µM	> 100	> 100 µM
Cc1cc(C)c(-c2c(N)cc(Br)cc2Br)c(N)c1	4.03	13.8	3.53	14.3	5.4	20 µM	7.75	21.6 µM	3.16	14.8 µM	3.09	8.74 µM	10.9	23.1 µM	–	–
O=C1O/C(=C/c2ccccc2)C(c2ccccc2)=C1O	–	> 100	–	> 100	–	88.1 µM	–	> 100 µM	–	> 100 µM	–	44.1 µM	–	> 100 µM	–	–
CC(=O)[CH-]C(=O)c1ccccc1.CC(=O)[CH-]C(=O)c1ccccc1.O=S(=O)([O-])c1cc([O-])c2c([O-])cc(S(=O)(=O)[O-])cc2c1.[Na+].[Zr+4]	–	–	> 100	> 100	> 100	> 100 µM	70.8	> 100 µM	69.8	> 100 µM	> 100	> 100 µM	> 100	> 100 µM	–	–
